Measured values: PubChem BioAssay AID256 (DTP/NCI, 2004)
“And” between values parts separate entries of the source, which are not always exact repeats. Equal values may be shown once. Toxic doses and inconclusive results are not listed. The calls were made as follows: active = survival T/C of 150% or more; inactive = T/C below 125% in these data.

Test system: CD2F1 mice, L1210 leukemia ip, survival T/C
Assay: NCI In Vivo Anticancer Drug Screen. Data for tumor model L1210 Leukemia (intraperitoneal) in CD2F1 (CDF1) mice
Conditions: higher = longer survival
Summary of the method: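 Transplantable tumor in mice; compound-treated vs vehicle-treated groups. Read-out = treated/control ratio of the measured endpoint.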

[1] = endpoint: mean survival time, dose: 100.0 mg/kg/injection, schedule: Q04DX002 (ip), vehicle: saline with Tween-80
[2] = endpoint: mean survival time, dose: 200.0 mg/kg/injection, schedule: Q04DX002 (ip), vehicle: saline with Tween-80
[3] = endpoint: mean survival time, dose: 100.0 mg/kg/injection, schedule: Q01DX001 (ip), vehicle: saline with Tween-80
[4] = endpoint: mean survival time, dose: 100.0 mg/kg/injection, schedule: Q01DX009 (ip), vehicle: saline with Tween-80
[5] = endpoint: mean survival time, dose: 200.0 mg/kg/injection, schedule: Q01DX001 (ip), vehicle: saline with Tween-80
[6] = endpoint: mean survival time, dose: 200.0 mg/kg/injection, schedule: Q01DX009 (ip), vehicle: saline with Tween-80
[7] = endpoint: mean survival time, dose: 400.0 mg/kg/injection, schedule: Q01DX001 (ip), vehicle: saline with Tween-80
[8] = endpoint: mean survival time, dose: 400.0 mg/kg/injection, schedule: Q01DX009 (ip), vehicle: saline with Tween-80
[9] = endpoint: mean survival time, dose: 6.25 mg/kg/injection, schedule: Q01DX009 (ip), vehicle: Klucel (hydroxypropylcellulose) (HPC)
[10] = endpoint: mean survival time, dose: 12.5 mg/kg/injection, schedule: Q01DX009 (ip), vehicle: Klucel (hydroxypropylcellulose) (HPC)
[11] = endpoint: mean survival time, dose: 25.0 mg/kg/injection, schedule: Q01DX009 (ip), vehicle: Klucel (hydroxypropylcellulose) (HPC)
[12] = endpoint: mean survival time, dose: 100.0 mg/kg/injection, schedule: Q04DX003 (ip), vehicle: saline with Tween-80
[13] = endpoint: mean survival time, dose: 200.0 mg/kg/injection, schedule: Q04DX003 (ip), vehicle: saline with Tween-80
[14] = endpoint: mean survival time, dose: 400.0 mg/kg/injection, schedule: Q04DX003 (ip), vehicle: saline with Tween-80

Measured: T/C

COc1cc2c(cc1OC)-c1ccc3cc4c(cc3c1N(C)C2)OCO4
inactive: endpoint: mean survival time, dose: 5.0 mg/kg/injection, schedule: Q01DX009 (ip), vehicle: water 106 % of control | endpoint: mean survival time, dose: 10.0 mg/kg/injection, schedule: Q01DX009 (ip), vehicle: water 105 % of control | endpoint: mean survival time, dose: 20.0 mg/kg/injection, schedule: Q01DX009 (ip), vehicle: water 105 % of control | endpoint: mean survival time, dose: 40.0 mg/kg/injection, schedule: Q01DX009 (ip), vehicle: water 108 % of control | endpoint: mean survival time, dose: 80.0 mg/kg/injection, schedule: Q01DX009 (ip), vehicle: water 103 % of control

CN=C(N)c1ccc(N=C(N)c2ccc(NC(=O)c3ccc(C(N)=NC)cc3)cc2)cc1
active: endpoint: mean survival time, dose: 30.0 mg/kg/injection, schedule: Q01DX Z (ip), vehicle: water 151 % of control

c1ccc(CCSCCSCCc2ccccn2)nc1
inactive: endpoint: mean survival time, dose: 50.0 mg/kg/injection, schedule: Q04DX002 (ip), vehicle: saline with Tween-80 101 % of control | [1] 113 % of control | [2] 101 % of control | endpoint: mean survival time, dose: 400.0 mg/kg/injection, schedule: Q04DX002 (ip), vehicle: saline with Tween-80 93 % of control

O=[N+]([O-])O.[Zn+2].c1ccncc1
inactive: endpoint: mean survival time, dose: 75.0 mg/kg/injection, schedule: Q01DX001 (ip), vehicle: saline 108 % of control

Cc1[nH]c(=S)[nH]c(=O)c1CCO
inactive: [3] 105 % of control | [4] 101 % of control | [5] 95 % of control | [6] 103 % of control | [7] 100 % of control | [8] 101 % of control

O=c1[nH]c(=O)n(C2OC(COP(=O)(O)O)C(O)C2O)nc1SCc1ccccc1 (configuration not stated)
inactive: endpoint: median survival time, dose: 5.0 mg/kg/injection, schedule: Q01DX005 (ip), vehicle: distilled water + Tween-80 109 % of control | endpoint: median survival time, dose: 10.0 mg/kg/injection, schedule: Q01DX005 (ip), vehicle: distilled water + Tween-80 98 % of control | endpoint: median survival time, dose: 20.0 mg/kg/injection, schedule: Q01DX005 (ip), vehicle: distilled water + Tween-80 96 % of control | endpoint: median survival time, dose: 40.0 mg/kg/injection, schedule: Q01DX005 (ip), vehicle: distilled water + Tween-80 105 % of control | endpoint: median survival time, dose: 80.0 mg/kg/injection, schedule: Q01DX005 (ip), vehicle: distilled water + Tween-80 117 % of control

CCOC(=O)c1cc(=O)c2cc(S(=O)(=O)F)ccc2[nH]1
inactive: endpoint: mean survival time, dose: 100.0 mg/kg/injection, schedule: Q04DX003 (ip), vehicle: Klucel (hydroxypropylcellulose) (HPC) 103 % of control | endpoint: mean survival time, dose: 200.0 mg/kg/injection, schedule: Q04DX003 (ip), vehicle: Klucel (hydroxypropylcellulose) (HPC) 103 % of control | endpoint: mean survival time, dose: 400.0 mg/kg/injection, schedule: Q04DX003 (ip), vehicle: Klucel (hydroxypropylcellulose) (HPC) 100 % of control

CCC(C)C1NC(=O)C(NC(=O)c2c3nc4c(C(=O)NC5C(=O)NC(C(C)CC)C(=O)N6CCCC6C(=O)N(C)CC(=O)N(C)C(C(C)C)C(=O)OC5C)cc([N+](=O)[O-])c(C)c4oc-3c(C)c(=O)c2N)C(C)OC(=O)C(C(C)C)N(C)C(=O)CN(C)C(=O)C2CCCN2C1=O (configuration not stated)
inactive: endpoint: mean survival time, dose: 0.05 mg/kg/injection, schedule: Q01DX009 (ip), vehicle: water 107 % of control | endpoint: mean survival time, dose: 0.1 mg/kg/injection, schedule: Q01DX009 (ip), vehicle: water 116 % of control | endpoint: mean survival time, dose: 0.2 mg/kg/injection, schedule: Q01DX009 (ip), vehicle: water 112 % of control | endpoint: mean survival time, dose: 0.4 mg/kg/injection, schedule: Q01DX009 (ip), vehicle: water 94 % of control

N#Cc1ccc(NN=O)nc1
inactive: endpoint: median survival time, dose: 3.12 mg/kg/injection, schedule: Q01DX005 (ip), vehicle: water 109 % of control | endpoint: median survival time, dose: 6.25 mg/kg/injection, schedule: Q01DX005 (ip), vehicle: water 120 % of control | endpoint: median survival time, dose: 12.5 mg/kg/injection, schedule: Q01DX005 (ip), vehicle: water 124 % of control | endpoint: median survival time, dose: 50.0 mg/kg/injection, schedule: Q01DX005 (ip), vehicle: water 95 % of control | endpoint: median survival time, dose: 69.4 mg/kg/injection, schedule: Q01DX005 (ip), vehicle: water 118 % of control
active: endpoint: median survival time, dose: 15.0 mg/kg/injection, schedule: Q01DX005 (ip), vehicle: water 152 % of control and 158 % of control | endpoint: median survival time, dose: 25.0 mg/kg/injection, schedule: Q01DX005 (ip), vehicle: water 164 % of control and 175 % of control | endpoint: median survival time, dose: 41.66 mg/kg/injection, schedule: Q01DX005 (ip), vehicle: water 191 % of control

COc1cc(C(=O)c2cc3c(cc2C)OCO3)cc(OC)c1OC
inactive: [9] 102 % of control and 105 % of control | [10] 100 % of control and 102 % of control | [11] 105 % of control and 107 % of control | endpoint: mean survival time, dose: 50.0 mg/kg/injection, schedule: Q01DX009 (ip), vehicle: Klucel (hydroxypropylcellulose) (HPC) 113 % of control and 98 % of control | endpoint: mean survival time, dose: 100.0 mg/kg/injection, schedule: Q01DX009 (ip), vehicle: Klucel (hydroxypropylcellulose) (HPC) 105 % of control | endpoint: mean survival time, dose: 200.0 mg/kg/injection, schedule: Q01DX009 (ip), vehicle: Klucel (hydroxypropylcellulose) (HPC) 114 % of control

O=[N+]([O-])c1ccc(N2CCOCC2)c([N+](=O)[O-])c1
inactive: [4] 103 % of control | [12] 97 % of control | [6] 100 % of control | [13] 103 % of control | [8] 97 % of control | [14] 100 % of control

O=[N+]([O-])c1cccc(Cc2nncc3ccccc23)c1
inactive: [4] 96 % of control | [6] 94 % of control | [8] 94 % of control

CCCCCCCCCCCCCCCCCCCOc1ccc(OCCCCCCCCCCCCCC)cc1
inactive: [3] 86 % of control | [5] 88 % of control | [7] 88 % of control

O=[As](O)(CC(O)COc1ccccc1)c1cccc(Cl)c1 (configuration not stated)
inactive: endpoint: mean survival time, dose: 6.25 mg/kg/injection, schedule: Q04DX003 (ip), vehicle: saline with Tween-80 103 % of control | endpoint: mean survival time, dose: 12.5 mg/kg/injection, schedule: Q04DX003 (ip), vehicle: saline with Tween-80 107 % of control | endpoint: mean survival time, dose: 25.0 mg/kg/injection, schedule: Q04DX003 (ip), vehicle: saline with Tween-80 100 % of control

COc1cc2c(c(OC)c1OC)-c1ccc(SCc3ccccc3)c(=O)cc1[C@@H](NC(C)=O)CC2
inactive: endpoint: mean survival time, dose: 1.56 mg/kg/injection, schedule: Q01DX009 (ip), vehicle: Klucel (hydroxypropylcellulose) (HPC) 103 % of control | endpoint: mean survival time, dose: 3.12 mg/kg/injection, schedule: Q01DX009 (ip), vehicle: Klucel (hydroxypropylcellulose) (HPC) 97 % of control | [9] 112 % of control | [10] 121 % of control | [11] 117 % of control

CC(=O)NC/C(Cl)=C/Cl
inactive: [12] 99 % of control | [13] 96 % of control | [14] 88 % of control

NC(=S)N/N=C/c1ccc(OC(=O)COc2ccccc2Cl)cn1
inactive: endpoint: mean survival time, dose: 12.5 mg/kg/injection, schedule: Q01DX009 (ip), vehicle: saline with Tween-80 120 % of control | endpoint: mean survival time, dose: 25.0 mg/kg/injection, schedule: Q01DX009 (ip), vehicle: saline with Tween-80 122 % of control | endpoint: mean survival time, dose: 50.0 mg/kg/injection, schedule: Q01DX001 (ip), vehicle: saline with Tween-80 101 % of control | endpoint: mean survival time, dose: 50.0 mg/kg/injection, schedule: Q04DX003 (ip), vehicle: saline with Tween-80 116 % of control and 118 % of control | [3] 108 % of control | [1] 103 % of control and 106 % of control | [12] 124 % of control | [5] 113 % of control | [2] 118 % of control and 107 % of control
active: [4] 159 % of control | [6] 155 % of control | [14] 152 % of control and 163 % of control

CCOC(=O)c1ccc(-c2ccc(C(=O)OCC)o2)o1
inactive: endpoint: mean survival time, dose: 50.0 mg/kg/injection, schedule: Q04DX002 (ip), vehicle: saline 101 % of control | endpoint: mean survival time, dose: 100.0 mg/kg/injection, schedule: Q04DX002 (ip), vehicle: saline 93 % of control | endpoint: mean survival time, dose: 200.0 mg/kg/injection, schedule: Q04DX002 (ip), vehicle: saline 97 % of control

CCc1cccc(OS(=O)(=O)c2cccc([N+](=O)[O-])c2)c1
inactive: [4] 98 % of control | [12] 103 % of control | [6] 102 % of control | [13] 103 % of control | [8] 93 % of control | [14] 101 % of control

N/C(=N\O)c1ncnc2c1ncn2C1OC(CO)C(O)C1O (configuration not stated)
inactive: endpoint: median survival time, dose: 6.25 mg/kg/injection, schedule: Q01DX005 (ip), vehicle: distilled water + Tween-80 107 % of control | endpoint: median survival time, dose: 12.5 mg/kg/injection, schedule: Q01DX005 (ip), vehicle: distilled water + Tween-80 115 % of control | endpoint: median survival time, dose: 25.0 mg/kg/injection, schedule: Q01DX005 (ip), vehicle: distilled water + Tween-80 108 % of control | endpoint: median survival time, dose: 50.0 mg/kg/injection, schedule: Q01DX005 (ip), vehicle: distilled water + Tween-80 111 % of control | endpoint: median survival time, dose: 100.0 mg/kg/injection, schedule: Q01DX005 (ip), vehicle: distilled water + Tween-80 111 % of control
